Results reported in US11932634B2 (Gilead Sciences, Inc., priority 2021, dated 2024).
pEC50, pIC50: −log10 of the molar value.

Key:
[1] = system: Jurkat NFκB-luciferase cells; experiment: Jurkat NFκB-Luciferase Assay; type: cell-based; conditions: Homo sapiens; Jurkat NFκB-luciferase cells activated with anti-CD3 antibody (OKT3), 2.5 hrs at 37° C., One-Glo Ex; geometric mean; read-out: DGK NFKb Luciferase EC50;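 also: bioluminescence read-out normalized to DMSO basal activation and to maximum enhancement at 1 µM compound, rising signal indicating stronger T-cell activation through DGKα inhibition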
human DGKα = target: T1, human DGKα (Homo sapiens, UniProt P23743); experiment: DGKα Biochemical Activity Assay (ADP-Glo);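 also: recombinant enzyme converting diacylglycerol in lipid micelles with ATP, ADP formed detected by luminescence, IC50 from a four-parameter nonlinear fit, geometric mean across experiments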
T1 construct: purchased Carna Biosciences'; inferred from the same paragraph's 'obtained from Carna Biosciences')
T1 sequence (P23743 whole entry): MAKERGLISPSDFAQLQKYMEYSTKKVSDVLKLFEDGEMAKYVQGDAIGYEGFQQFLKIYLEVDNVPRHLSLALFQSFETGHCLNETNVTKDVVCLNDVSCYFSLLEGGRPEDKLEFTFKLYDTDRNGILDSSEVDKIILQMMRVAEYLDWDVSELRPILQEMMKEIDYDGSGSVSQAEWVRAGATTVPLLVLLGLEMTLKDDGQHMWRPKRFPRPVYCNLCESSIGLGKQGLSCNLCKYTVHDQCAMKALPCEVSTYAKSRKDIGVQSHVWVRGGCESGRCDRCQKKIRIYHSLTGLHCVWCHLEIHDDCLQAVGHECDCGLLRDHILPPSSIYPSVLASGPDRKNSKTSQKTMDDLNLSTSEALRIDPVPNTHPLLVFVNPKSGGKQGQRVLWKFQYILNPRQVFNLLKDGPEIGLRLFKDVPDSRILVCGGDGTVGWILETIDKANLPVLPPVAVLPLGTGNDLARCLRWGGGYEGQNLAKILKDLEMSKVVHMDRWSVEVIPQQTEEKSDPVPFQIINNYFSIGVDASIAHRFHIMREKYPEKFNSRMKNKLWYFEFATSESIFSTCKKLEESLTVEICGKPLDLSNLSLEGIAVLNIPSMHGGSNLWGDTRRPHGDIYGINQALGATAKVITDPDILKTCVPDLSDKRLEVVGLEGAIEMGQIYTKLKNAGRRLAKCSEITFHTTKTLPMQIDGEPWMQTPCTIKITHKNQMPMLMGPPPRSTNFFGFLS

Work on `[2H]C([2H])([2H])n1c(=O)nc(N2CCCCc3c(C#CC(C)(C)O)cccc32)c2c(F)cccc21` [Example 85, 5-fluoro-4-[6-(3-hydroxy-3-methyl-but-1-ynyl)-2,3,4,5-tetrahydro-1-benzazepin-1-yl]-1-(trideuteriomethyl)quinazolin-2-one] yielded a pEC50 [1] of 8.39 and a pIC50 (human DGKα) of 8.48.

With `CC(C)(O)C#Cc1cccc2c1OCCCN2c1nc(=O)[nH]c2cccc(F)c12` [Example 82, 5-fluoro-4-[9-(3-hydroxy-3-methyl-but-1-ynyl)-3,4-dihydro-2H-1,5-benzoxazepin-5-yl]-1H-quinazolin-2-one] the pEC50 [1] was 7.74 and the pIC50 (human DGKα) was 8.35.

`Cn1c(=O)nc(N(CC(F)(F)F)c2cc(F)cc(C#CC3(C(F)(F)F)CC3)c2)c2c(F)cccc21` [Example 31, 5-fluoro-4-[3-fluoro-N-(2,2,2-trifluoroethyl)-5-[2-[1-(trifluoromethyl)cyclopropyl]ethynyl]anilino]-1-methyl-quinazolin-2-one] gave a pEC50 [1] of 8.54 and a pIC50 (human DGKα) of 7.34.

`[2H]C([2H])([2H])n1c(=O)nc(N2CCOCc3c(C#CC4(C(F)(F)F)CCN(C5COC5)C4)cccc32)c2c(F)cccc21` (stereo not shown) [Example 171, 5-fluoro-4-[6-[2-[1-(oxetan-3-yl)-3-(trifluoromethyl)pyrrolidin-3-yl]ethynyl]-3,5-dihydro-2H-4,1-benzoxazepin-1-yl]-1-(trideuteriomethyl)quinazolin-2-one] gave a pEC50 [1] of 8.30 and a pIC50 (human DGKα) of 7.94.

With `CC(C)(C#N)C#Cc1nccc(N(CC(F)F)c2nc(=O)[nH]c3cccc(F)c23)c1F` [Example 119, 4-[4-[2,2-difluoroethyl-(5-fluoro-2-oxo-1H-quinazolin-4-yl)amino]-3-fluoro-2-pyridyl]-2,2-dimethyl-but-3-ynenitrile] the pEC50 [1] was 8.15 and the pIC50 (human DGKα) was 7.97.

For `O=c1nc(N(CC(F)F)c2cccc(C#CC3(C(F)(F)F)CC3)n2)c2cc(F)ccc2[nH]1` [Example 46, 4-((2,2-difluoroethyl)(6-((1-(trifluoromethyl)cyclopropyl)ethynyl)pyridin-2-yl)amino)-6-fluoroquinazolin-2(1H)-one], the pEC50 [1] was 7.82 and the pIC50 (human DGKα) was 7.06.

`CC1(C#Cc2nccc(N(CC(F)F)c3nc(=O)[nH]c4cccc(F)c34)c2F)CC1` [Example 115, 4-[2,2-difluoroethyl-[3-fluoro-2-[2-(1-methylcyclopropyl)ethynyl]-4-pyridyl]amino]-5-fluoro-1H-quinazolin-2-one] gave a pEC50 [1] of 8.92 and a pIC50 (human DGKα) of 8.22.

`O=c1nc(N(CC(F)F)c2cc(F)cc(C#CC3(C(F)(F)F)CC3)c2)c2cc(F)ccc2[nH]1` [Example 50, 4-[N-(2,2-difluoroethyl)-3-fluoro-5-[2-[1-(trifluoromethyl)cyclopropyl]ethynyl]anilino]-6-fluoro-1H-quinazolin-2-one] showed a pEC50 [1] of 8.74 and a pIC50 (human DGKα) of 6.67.

With `O=c1nc(N2CCCCc3c(C#CC4(C(F)(F)F)CC4)cccc32)c2c(F)cccc2[nH]1` [Example 156, 5-fluoro-4-(6-((1-(trifluoromethyl)cyclopropyl)ethynyl)-2,3,4,5-tetrahydro-1H-benzo[b]azepin-1-yl)quinazolin-2(1H)-one] the pEC50 [1] was 9.51 and the pIC50 (human DGKα) was 7.65.

`O=c1nc(N(CC(F)F)c2ccnc(C#CC3(C(F)(F)F)CC3)c2F)c2c(F)cccc2[nH]1` [Example 118, 4-[2,2-difluoroethyl-[3-fluoro-2-[2-[1-(trifluoromethyl)cyclopropyl]ethynyl]-4-pyridyl]amino]-5-fluoro-1H-quinazolin-2-one] showed a pEC50 [1] of 8.43 and a pIC50 (human DGKα) of 7.59.

In the case of `O=c1nc(N2CCCCc3c(C#CC4(C(F)(F)F)CC4)cncc32)c2cc(F)ccc2[nH]1` [Example 165, 6-fluoro-4-(6-((1-(trifluoromethyl)cyclopropyl)ethynyl)-2,3,4,5-tetrahydro-1H-pyrido[3,4-b]azepin-1-yl)quinazolin-2(1H)-one], the pEC50 [1] was 9.20 and the pIC50 (human DGKα) was 7.91.

With `O=c1nc(N2CCOCc3c(C#CC4CC4)cccc32)c2c(F)ccc(F)c2[nH]1` [Example 146] the pEC50 [1] was 8.33 and the pIC50 (human DGKα) was 8.02.

For `O=c1nc(N2CCOCc3c(C#CC4(C(F)(F)F)CC4)cccc32)c2c(F)c(F)ccc2[nH]1` [Example 89, 5,6-difluoro-4-[6-[2-[1-(trifluoromethyl)cyclopropyl]ethynyl]-3,5-dihydro-2H-4,1-benzoxazepin-1-yl]-1H-quinazolin-2-one], the pEC50 [1] was 9.59 and the pIC50 (human DGKα) was 8.65.

`CC(C)(O)CC#Cc1cccc2c1CCCN2c1nc(=O)[nH]c2cccc(F)c12` [Example 54, 5-fluoro-4-[5-(4-hydroxy-4-methyl-pent-1-ynyl)-3,4-dihydro-2H-quinolin-1-yl]-M-quinazolin-2-one] was tested, and the pEC50 [1] was 8.08 and the pIC50 (human DGKα) was 7.63.

Work on `CC(C)(C#Cc1cncc2c1CCCN2c1nc(=O)[nH]c2cccc(F)c12)C(F)(F)F` [Example 72, 5-fluoro-4-(5-(4,4,4-trifluoro-3,3-dimethylbut-1-yn-1-yl)-3,4-dihydro-1,7-naphthyridin-1(2H)-yl)quinazolin-2(1H)-one] yielded a pEC50 [1] of 8.24 and a pIC50 (human DGKα) of 6.90.

In the case of `[2H]C([2H])([2H])n1c(=O)nc(N(CC(F)F)c2ccnc(C#CC3(C(F)(F)F)CC3)c2)c2c(F)c(F)ccc21` [Example 80, 4-[2,2-difluoroethyl-[2-[2-[1-(trifluoromethyl)cyclopropyl]ethynyl]-4-pyridyl]amino]-5,6-difluoro-1-(trideuteriomethyl)quinazolin-2-one], the pEC50 [1] was 8.71 and the pIC50 (human DGKα) was 8.43.

`[2H]C([2H])([2H])n1c(=O)nc(N(CC(F)F)c2ccnc(C#CC3(C(F)(F)F)CC3)c2F)c2c(F)cccc21` [Example 124, 4-[2,2-difluoroethyl-[3-fluoro-2-[2-[1-(trifluoromethyl)cyclopropyl]ethynyl]-4-pyridyl]amino]-5-fluoro-1-(trideuteriomethyl)quinazolin-2-one] was tested, and the pEC50 [1] was 8.90 and the pIC50 (human DGKα) was 7.92.

`CN(c1cccc(-c2ccc(N3CCCS3(=O)=O)cc2)c1)c1nc(=O)n(C)c2cc(Cl)ccc12` [Example 10, 7-chloro-4-[3-[4-(1,1-dioxo-1,2-thiazolidin-2-yl)phenyl]-N-methyl-anilino]-1-methyl-quinazolin-2-one] showed a pEC50 [1] of 8.82 and a pIC50 (human DGKα) of 7.86.

Molecule `CC(C)(O)C#Cc1cccc2c1CCCN2c1nc(=O)[nH]c2cccc(F)c12` [Example 43, 5-fluoro-4-[5-(3-hydroxy-3-methyl-but-1-ynyl)-3,4-dihydro-2H-quinolin-1-yl]-1H-quinazolin-2-one] has a pEC50 [1] of 8.60 and a pIC50 (human DGKα) of 8.74.

With `[2H]C([2H])([2H])n1c(=O)nc(N(CC(F)F)c2ccnc(C#CC3(C(F)F)CC3)c2F)c2c(F)cccc21` [Example 129, 4-[2,2-difluoroethyl-[2-[2-[1-(difluoromethyl)cyclopropyl]ethynyl]-3-fluoro-4-pyridyl]amino]-5-fluoro-1-(trideuteriomethyl)quinazolin-2-one] the pEC50 [1] was 8.37 and the pIC50 (human DGKα) was 8.55.

With `[2H]C([2H])([2H])n1c(=O)nc(N2CCOCc3c(Br)cccc32)c2c(F)cccc21` [Example 99, 4-(6-bromo-2,3-dihydrobenzo[e][1,4]oxazepin-1(5H)-yl)-5-fluoro-1-(methyl-d3)quinazolin-2(1H)-one] the pEC50 [1] was 8.09 and the pIC50 (human DGKα) was 7.51.

With `O=c1nc(N(CC(F)(F)F)c2cc(F)cc(C#CC3(C(F)(F)F)CC3)c2)c2ccc(Cl)cc2[nH]1` [Example 29, 7-chloro-4-[3-fluoro-N-(2,2,2-trifluoroethyl)-5-[2-[1-(trifluoromethyl)cyclopropyl]ethynyl]anilino]-1H-quinazolin-2-one] the pEC50 [1] was 8.73 and the pIC50 (human DGKα) was 6.07.

`[2H]C([2H])([2H])n1c(=O)nc(N2CCCOc3c(C#CC(C)(C)O)cccc32)c2c(F)cccc21` [Example 83, 5-fluoro-4-[9-(3-hydroxy-3-methyl-but-1-ynyl)-3,4-dihydro-2H-1,5-benzoxazepin-5-yl]-1-(trideuteriomethyl)quinazolin-2-one] gave a pEC50 [1] of 7.79 and a pIC50 (human DGKα) of 7.88.

In the case of `[2H]C([2H])([2H])n1c(=O)nc(N2CCOCc3c(C#CC(C)(C)NC(=O)C4(C(F)(F)F)CC4)cccc32)c2c(F)cccc21` [Example 176, N-(4-(1-(5-fluoro-1-(methyl-d3)-2-oxo-1,2-dihydroquinazolin-4-yl)-1,2,3,5-tetrahydrobenzo[e][1,4]oxazepin-6-yl)-2-methylbut-3-yn-2-yl)-1-(trifluoromethyl)cyclopropane-1-carboxamide], the pEC50 [1] was 8.27 and the pIC50 (human DGKα) was 8.62.

For `CC(C)(C#Cc1cccc2c1COCCN2c1nc(=O)[nH]c2cccc(F)c12)C(F)(F)F` [Example 92, 5-fluoro-4-(6-(4,4,4-trifluoro-3,3-dimethylbut-1-yn-1-yl)-2,3-dihydrobenzo[e][1,4]oxazepin-1(5H)-yl)quinazolin-2(1H)-one], the pEC50 [1] was 8.78 and the pIC50 (human DGKα) was 7.43.

Molecule `[2H]C([2H])([2H])n1c(=O)nc(N(CC(F)F)c2ccnc(C#CC3(C(F)(F)F)CC3)c2)c2c(F)cccc21` [Example 135, 4-[2,2-difluoroethyl-[2-[2-[1-(trifluoromethyl)cyclopropyl]ethynyl]-4-pyridyl]amino]-5-fluoro-1-(trideuteriomethyl)quinazolin-2-one] has a pEC50 [1] of 8.65 and a pIC50 (human DGKα) of 7.97.

`O=c1nc(N(CC(F)F)c2ccnc(C#CC3(C(F)F)CC3)c2F)c2c(F)cccc2[nH]1` [Example 126, 4-[2,2-difluoroethyl-[2-[2-[1-(difluoromethyl)cyclopropyl]ethynyl]-3-fluoro-4-pyridyl]amino]-5-fluoro-1H-quinazolin-2-one] showed a pEC50 [1] of 8.47 and a pIC50 (human DGKα) of 7.74.

With `CN(c1cccc(C#CC2(C(F)(F)F)CC2)c1)c1nc(=O)[nH]c2cc(Cl)ccc12` [Example 5, 7-chloro-4-[N-methyl-3-[2-[1-(trifluoromethyl)cyclopropyl]ethynyl]anilino]-1H-quinazolin-2-one] the pEC50 [1] was 8.99 and the pIC50 (human DGKα) was 7.27.

With `CN(c1cccc(C#CC(C)(C)O)c1)c1nc(=O)[nH]c2cc(Cl)ccc12` [Example 3, 7-chloro-4-[3-(3-hydroxy-3-methyl-but-1-ynyl)-N-methyl-anilino]-1H-quinazolin-2-one] the pEC50 [1] was 7.97 and the pIC50 (human DGKα) was 7.02.
